Reference: the NIST ThermoML archive (doi:10.1021/je700260f)
“And” between values parts separate entries of the source, which are not always exact repeats. Identical values can stand only once.

Conditions: Liquid, Vibrating tube method

FC(C(F)(F)F)C(F)(F)F [1,1,1,2,3,3,3-heptafluoropropane]
Conditions	mass density
323.15 K, 24369 kPa	1441.6 kg/m3
323.15 K, 24448 kPa	1441.9 kg/m3
323.15 K, 24476 kPa	1442 kg/m3
323.15 K, 24507 kPa	1442.1 kg/m3
323.15 K, 24535 kPa	1442.3 kg/m3
323.15 K, 24630 kPa	1442.7 kg/m3
323.15 K, 25178 kPa	1445.1 kg/m3
323.15 K, 25221 kPa	1445.2 kg/m3
323.15 K, 25254 kPa	1445.3 kg/m3
323.15 K, 25279 kPa	1445.5 kg/m3
323.15 K, 25317 kPa	1445.6 kg/m3
323.15 K, 25347 kPa	1445.8 kg/m3
323.15 K, 25380 kPa	1445.9 kg/m3
323.15 K, 25479 kPa	1446.3 kg/m3
323.15 K, 25518 kPa	1446.5 kg/m3
323.15 K, 25548 kPa	1446.5 kg/m3
323.15 K, 25582 kPa	1446.8 kg/m3
323.15 K, 25619 kPa	1447 kg/m3
323.15 K, 25648 kPa	1447.1 kg/m3
323.15 K, 25678 kPa	1447.1 kg/m3
323.15 K, 25713 kPa	1447.3 kg/m3
323.15 K, 25743 kPa	1447.4 kg/m3
323.15 K, 25772 kPa	1447.5 kg/m3
323.15 K, 25810 kPa	1447.7 kg/m3
323.15 K, 25835 kPa	1447.8 kg/m3
323.15 K, 25868 kPa	1447.9 kg/m3
323.15 K, 25896 kPa	1448 kg/m3
323.15 K, 25923 kPa	1448.1 kg/m3
323.15 K, 26006 kPa	1448.7 kg/m3
323.15 K, 26035 kPa	1448.7 kg/m3
323.15 K, 26099 kPa	1449 kg/m3
323.15 K, 26134 kPa	1449.1 kg/m3
323.15 K, 26161 kPa	1449.1 kg/m3
323.15 K, 26196 kPa	1449.4 kg/m3
323.15 K, 26255 kPa	1449.6 kg/m3
323.15 K, 26288 kPa	1449.7 kg/m3
323.15 K, 27476 kPa	1454.6 kg/m3
323.15 K, 27515 kPa	1454.7 kg/m3
323.15 K, 27549 kPa	1454.9 kg/m3
323.15 K, 27579 kPa	1455 kg/m3
323.15 K, 27618 kPa	1455.2 kg/m3
323.15 K, 27658 kPa	1455.4 kg/m3
323.15 K, 27685 kPa	1455.4 kg/m3
323.15 K, 27721 kPa	1455.7 kg/m3
323.15 K, 27748 kPa	1455.7 kg/m3
323.15 K, 27786 kPa	1455.9 kg/m3
323.15 K, 27821 kPa	1456 kg/m3
323.15 K, 27852 kPa	1456 kg/m3
323.15 K, 27887 kPa	1456.3 kg/m3
323.15 K, 27918 kPa	1456.3 kg/m3
323.15 K, 27943 kPa	1456.5 kg/m3
323.15 K, 27982 kPa	1456.6 kg/m3
323.15 K, 28017 kPa	1456.8 kg/m3
323.15 K, 28049 kPa	1456.7 kg/m3
323.15 K, 28080 kPa	1457 kg/m3
323.15 K, 28115 kPa	1457.1 kg/m3
323.15 K, 28148 kPa	1457.2 kg/m3
323.15 K, 28180 kPa	1457.4 kg/m3
323.15 K, 28217 kPa	1457.6 kg/m3
323.15 K, 28245 kPa	1457.7 kg/m3
323.15 K, 28276 kPa	1457.9 kg/m3
323.15 K, 28309 kPa	1457.9 kg/m3
323.15 K, 28337 kPa	1458 kg/m3
323.15 K, 28375 kPa	1458.1 kg/m3
323.15 K, 28403 kPa	1458.3 kg/m3
323.15 K, 28445 kPa	1458.5 kg/m3
323.15 K, 28474 kPa	1458.6 kg/m3
323.15 K, 28506 kPa	1458.7 kg/m3
323.15 K, 28534 kPa	1458.7 kg/m3
323.15 K, 28571 kPa	1459 kg/m3
323.15 K, 28603 kPa	1459.1 kg/m3
323.15 K, 28633 kPa	1459.2 kg/m3
323.15 K, 28660 kPa	1459.4 kg/m3
323.15 K, 28691 kPa	1459.5 kg/m3
323.15 K, 28718 kPa	1459.6 kg/m3
323.15 K, 28763 kPa	1459.8 kg/m3
323.15 K, 28799 kPa	1459.9 kg/m3
323.15 K, 28837 kPa	1459.9 kg/m3
323.15 K, 28870 kPa	1460.1 kg/m3
323.15 K, 28904 kPa	1460.2 kg/m3
323.15 K, 28935 kPa	1460.4 kg/m3
323.15 K, 28970 kPa	1460.5 kg/m3
323.15 K, 28997 kPa	1460.6 kg/m3
323.15 K, 29033 kPa	1460.8 kg/m3
323.15 K, 29063 kPa	1460.9 kg/m3
323.15 K, 29088 kPa	1460.9 kg/m3
323.15 K, 29121 kPa	1461.1 kg/m3
323.15 K, 29162 kPa	1461.2 kg/m3
323.15 K, 29188 kPa	1461.4 kg/m3
323.15 K, 29756 kPa	1463.5 kg/m3
323.15 K, 29784 kPa	1463.7 kg/m3
323.15 K, 29822 kPa	1463.8 kg/m3
323.15 K, 29860 kPa	1464 kg/m3
323.15 K, 29886 kPa	1464 kg/m3
323.15 K, 29919 kPa	1464.2 kg/m3
323.15 K, 29949 kPa	1464.3 kg/m3
323.15 K, 30616 kPa	1466.8 kg/m3
323.15 K, 30653 kPa	1467 kg/m3
323.15 K, 30689 kPa	1467.1 kg/m3
323.15 K, 30736 kPa	1467.2 kg/m3
323.15 K, 30764 kPa	1467.3 kg/m3
323.15 K, 30805 kPa	1467.5 kg/m3
323.15 K, 30843 kPa	1467.7 kg/m3
323.15 K, 30885 kPa	1467.8 kg/m3
323.15 K, 32658 kPa	1474.5 kg/m3
323.15 K, 32686 kPa	1474.5 kg/m3
323.15 K, 34384 kPa	1480.6 kg/m3
323.15 K, 34387 kPa	1480.4 kg/m3 and 1480.6 kg/m3
323.16 K, 14143 kPa	1389.6 kg/m3
323.16 K, 14163 kPa	1389.5 kg/m3
323.16 K, 14186 kPa	1389.6 kg/m3
323.16 K, 14200 kPa	1389.8 kg/m3
323.16 K, 14366 kPa	1390.8 kg/m3
323.16 K, 14386 kPa	1390.8 kg/m3
323.16 K, 14409 kPa	1390.9 kg/m3
323.16 K, 14427 kPa	1391.1 kg/m3
323.16 K, 14450 kPa	1391.3 kg/m3
323.16 K, 14470 kPa	1391.5 kg/m3
323.16 K, 14492 kPa	1391.6 kg/m3
323.16 K, 14509 kPa	1391.5 kg/m3
323.16 K, 16696 kPa	1404.2 kg/m3
323.16 K, 16719 kPa	1404.2 kg/m3
323.16 K, 16735 kPa	1404.5 kg/m3
323.16 K, 16783 kPa	1404.5 kg/m3
323.16 K, 29984 kPa	1464.4 kg/m3
323.16 K, 30010 kPa	1464.6 kg/m3
323.16 K, 30040 kPa	1464.7 kg/m3
323.16 K, 30071 kPa	1464.8 kg/m3
323.16 K, 30102 kPa	1464.9 kg/m3
323.16 K, 30132 kPa	1465 kg/m3
323.16 K, 30163 kPa	1465.1 kg/m3
323.16 K, 30194 kPa	1465.2 kg/m3
323.16 K, 30221 kPa	1465.4 kg/m3
323.16 K, 30252 kPa	1465.5 kg/m3
323.16 K, 30280 kPa	1465.6 kg/m3
323.16 K, 30311 kPa	1465.6 kg/m3
323.16 K, 30340 kPa	1465.8 kg/m3
323.16 K, 30380 kPa	1466 kg/m3
323.16 K, 30414 kPa	1466.1 kg/m3
323.16 K, 30444 kPa	1466.3 kg/m3
323.16 K, 30470 kPa	1466.4 kg/m3
323.16 K, 30505 kPa	1466.5 kg/m3
323.16 K, 30532 kPa	1466.6 kg/m3
323.16 K, 30554 kPa	1466.6 kg/m3
323.16 K, 30581 kPa	1466.8 kg/m3
333.13 K, 1640 kPa	1225.8 kg/m3
333.13 K, 1661 kPa	1226.3 kg/m3
333.13 K, 1691 kPa	1226.6 kg/m3
333.13 K, 1709 kPa	1227.1 kg/m3
333.13 K, 1736 kPa	1227.6 kg/m3
333.13 K, 1764 kPa	1228 kg/m3
333.13 K, 1789 kPa	1228.4 kg/m3
333.13 K, 1815 kPa	1229 kg/m3
333.13 K, 1839 kPa	1229.7 kg/m3
333.13 K, 1866 kPa	1229.9 kg/m3
333.13 K, 1898 kPa	1230.4 kg/m3
333.13 K, 1924 kPa	1231 kg/m3
333.13 K, 1944 kPa	1231.2 kg/m3
333.13 K, 1976 kPa	1231.8 kg/m3
333.13 K, 2004 kPa	1232.3 kg/m3
333.13 K, 2034 kPa	1232.9 kg/m3
333.13 K, 2056 kPa	1233.2 kg/m3
333.13 K, 2088 kPa	1233.7 kg/m3
333.13 K, 2113 kPa	1234.2 kg/m3
333.13 K, 2138 kPa	1234.6 kg/m3
333.13 K, 2357 kPa	1238.4 kg/m3
333.13 K, 2604 kPa	1242.4 kg/m3
333.13 K, 2744 kPa	1244.5 kg/m3
333.13 K, 2770 kPa	1244.9 kg/m3
333.13 K, 2793 kPa	1245.1 kg/m3
333.13 K, 2828 kPa	1245.9 kg/m3
333.13 K, 2863 kPa	1246.2 kg/m3
333.13 K, 2890 kPa	1246.6 kg/m3
333.13 K, 2915 kPa	1247.1 kg/m3
333.13 K, 2950 kPa	1247.6 kg/m3
333.13 K, 3233 kPa	1251.7 kg/m3
333.13 K, 3261 kPa	1252.3 kg/m3
333.13 K, 3298 kPa	1252.9 kg/m3
333.13 K, 3326 kPa	1253.1 kg/m3
333.13 K, 3358 kPa	1253.7 kg/m3
333.13 K, 3391 kPa	1254.2 kg/m3
333.13 K, 3420 kPa	1254.6 kg/m3
333.13 K, 3448 kPa	1255 kg/m3
333.13 K, 3488 kPa	1255.4 kg/m3
333.13 K, 3517 kPa	1256 kg/m3
333.13 K, 3542 kPa	1256.2 kg/m3
333.13 K, 3575 kPa	1256.7 kg/m3
333.13 K, 3608 kPa	1257.2 kg/m3
333.13 K, 3641 kPa	1257.6 kg/m3
333.13 K, 3670 kPa	1258.2 kg/m3
333.13 K, 3699 kPa	1258.5 kg/m3
333.13 K, 3726 kPa	1258.9 kg/m3
333.13 K, 3767 kPa	1259.4 kg/m3
333.13 K, 3793 kPa	1259.7 kg/m3
333.13 K, 3826 kPa	1260.3 kg/m3
333.13 K, 3860 kPa	1260.8 kg/m3
333.13 K, 3894 kPa	1261.2 kg/m3
333.13 K, 3924 kPa	1261.5 kg/m3
333.13 K, 3950 kPa	1261.9 kg/m3
333.13 K, 3984 kPa	1262.2 kg/m3
333.13 K, 4010 kPa	1262.9 kg/m3
333.13 K, 4041 kPa	1263.1 kg/m3
333.13 K, 4072 kPa	1263.5 kg/m3
333.13 K, 4105 kPa	1264 kg/m3
333.13 K, 4143 kPa	1264.4 kg/m3
